Reference: patent US20050153381A1, “Immunocapture of mitochondrial protein complexes” (priority 2002, published 2005)

Columns and labels:
[1] = tested on: human fibroblasts (cell strain MRC5); type: cell-based
Procedure: Normal, human fibroblasts (cell strain MRC5) were treated with DCC for five to seven population doublings. Complex IV subunit I in treated fibroblasts was detected immunocytochemically with mAb RAC#18-1D6E1A8 using standard protocols (Janes et al., J. Histochem. Cytochem., 52: 1011-1018, 2004; RAC#18-1D6E1A8 is commercially available from Molecular Probes, MitoScience, and Abcam). Subunit I levels were determined relative to mitochondrial mass measured by porin content (a mitochondrial outer membrane protein encoded by nuclear DNA). Porin content was also determined immunocytochemically using porin-specific mAb 31HL (available from Calbiochem). mtDNA depletion in DCC-treated fibroblasts was detected using real time PCR and FISH with a mtDNA probe in accordance with commonly used methods (see, Janes et al., J. Histochem. Cytochem., 52: 1011-1018, 2004).

[2] = molecular target: human mtDNA polymerase γ (Homo sapiens, UniProt P54098); conditions: cited from earlier work
[3] = molecular target: Complex I (Homo sapiens, UniProt P49821+P56556); conditions: normal fibroblast Complex I; DPI in reaction buffer (FIG. 28)
Procedure: (§1) Mitochondria (human heart, human fibroblast or bovine heart) were solubilized at 5 mg/ml mitochondrial protein, 1% wt/vol lauryl maltoside, 100 mM NaCl, 25 mM HEPES pH 7.5, and the protease inhibitors pepstatin (0.5 μg/ml), leupeptin (0.5 μg/ml) and PMSF (1 mM). The samples were incubated at 4° C. for 30 minutes and the insoluble material removed by centrifugation at 16,000×g for 20 minutes. Solubilized mitochondria were diluted to the desired concentration in 150 mM NaCl, 50 mM Tris-HCl, pH 7.5 containing 2.5% bovine serum albumin as a blocking and stabilization agent.
(§2) After the entire sample wicked up into the nitrocellulose (approximately 15 minutes), the stick was transferred to a second well containing 50 μl of wash buffer (150 mM NaCl, 50 mM Tris-HCl, pH 7.5), which was allowed to wick up the stick (approximately 15 minutes). The absorbent pad was then removed and the entire dipstick incubated in a tube containing 3 ml wash buffer for approximately 15 minutes. The washed dipstick (with the immunocaptured OXPHOS complex of interest) was then transferred to the appropriate enzyme reaction buffer to reveal enzyme activity as described below.
Complex I. The Complex I reaction buffer solution contained 0.1 mg/ml NADH, 2.5 mg/ml NBT in 2 mM Tris-HCl, pH 7.4. […]

[4] = molecular target: Complex IV (Bos taurus, UniProt P00396)
Procedure: as §1, §2
Complex IV. The Complex IV reaction buffer solution contained 0.5 mg/ml 3,3′ diaminobenzidine-tetrachloride (DAB) and 0.1 mM reduced cytochrome c in PBS, pH 7.4. […]

[5] = molecular target: T1, Complex IV (cytochrome c oxidase) (Bos taurus, UniProt P00396); experiment: Complex IV (cytochrome c oxidase) activity, ferrocytochrome c oxidation at 550 nm; type: biochemical, bovine; conditions: mitochondrial membranes exposed to up to 1600 μM; membranes and isolated enzyme (FIG. 24A)
T1 construct: from tissue; host or cells: bovine heart mitochondria
Procedure: 4. Fe^3Fe^2+ Catalyzed Oxidation of Mitochondria. Mitochondria at 5 mg/mL in 25 mM KH2PO4 pH 7.2, 5 mM MgCl2 were incubated for 0, 0.5, 1, 2, or 4 hours with 1 mM FeCl3/25 mM sodium ascorbate. Incubation could not be performed for less than 0.5 h because iron could only be removed by rapid dialysis, which was performed for 30 min against 25 mM potassium phosphate pH 7.2, 5 mM MgCl2 using 12000 Da MWCO dialysis membrane (Spectrapor). After oxidation, mitochondrial membranes were subjected to the Complex IV activity assay described below. The Complex IV enzyme was then isolated by the immunocapture extraction method above.
5. Peroxynitrite Catalyzed Oxidation of Mitochondria. […] Following this oxidative treatment, Complex IV activity was measured before and after Complex IV immunocapture.
6. […] Potassium cyanide-sensitive Complex IV activity was measured in bovine heart mitochondria or with immunopurified isolated enzyme. […] Reduced bovine heart cytochrome c was purified over a Sephadex G-15 (Pharmacia) column equilibrated with assay buffer, collected in 1 mL fractions, and the concentration measured at 550 nm in a Beckman DU7. The oxidation of ferrocytochrome c was followed at 550 nm in a 1 mL reaction vessel in the DU7 or in a 96 well plate (Corning) using a Victor2 1460 multi-plate reader (Perkin-Elmer) with a narrow band pass 550 nm filter. […]

[6] = tested on: Complex I (NADH:UQ1 oxidoreductase); experiment: Immunocaptured Complex I NADH:UQ1 oxidoreductase microplate activity assay; type: biochemical; conditions: 16 μg heart mitochondria per well; 240 ng rotenone (FIG. 27)
Procedure: In brief, 1 μg mAb RAC#24-20D1AB7 was added per well (50 μl of a 20 μg/ml solution in PBS) on a protein G-coated 96-well plate, incubated overnight at 4° C., then washed three times with PBS. Then, heart mitochondria solubilized in lauryl maltoside as previously described and diluted in PBS were added at 16 μg (♦), 8 μg (▪), 4 μg (▴) and 0 μg (●) per well in 50 μl aliquots and incubated at room temperature for 2 hours. The wells then were washed three times with 200 μl/well of 20 mM Tris/HCl, pH 7.5, 50 mM KCl, 0.015% lauryl maltoside. A phospholipid solution (see below) was added at 40 μl/well, incubated for 45 minutes at 4° C. and then 200 μl of assay solution (25 mM KPi pH 7.2, 5 mM MgCl2, 2 mM KCN, 260 μM NADH, and 200 μM UQ1) was added directly to the phospholipid solution. The oxidation of NADH was measured by following the decrease of the absorbance at 340 nm. Absorbance changes were measured at 340 nm with a Victor2 from Perkin Elmer for two hours.
The phospholipid stock solution was made by mixing 0.76 ml of 10 mg/ml egg-yolk phosphatidyl choline, 0.38 ml of 5 mg/ml egg-yolk phosphatidylethanolamine, and 0.1 ml of 5 mg/ml cardiolipin in round bottom flask. This mixture was dried under N2, resuspended in 4.25 ml buffer I (20 mM Tris/HCl pH 7.5, 50 mM KCl), and vortexed. […]

[7] = molecular target: T2, C-V-IP (inhibitor protein IF1), human (UniProt Q9UII2)
T2 sequence: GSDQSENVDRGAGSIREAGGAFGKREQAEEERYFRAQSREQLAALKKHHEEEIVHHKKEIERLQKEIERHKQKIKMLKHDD

[8] = molecular target: T3, recombinant human IF1, His-tagged (UniProt Q9UII2)
T3 sequence: T2 sequence

[9] = tested on: human mitochondrial F1/F0 ATPase (Complex V); experiment: ATPase activity of immunocaptured F1/F0 ATPase, 96-well; type: biochemical
Procedure: Solubilization. Samples were thawed and placed in 25 mM HEPES pH 7.5 (to dissociate F1F0/IF1 interactions) or 10 mM […] (Anatrace) pH 6.5 (to retain F1F0/IF1 interactions), containing 0.4% (w/v) […], and the protease inhibitors leupeptin (0.5 μg/ml), pepstatin (0.5 μg/ml) and PMSF (1 mM). Mitochondria were solubilized at 5 mg/ml and whole cells were solubilized at 2×10^7 cells/ml. Samples were mixed well and then kept on ice for 30 minutes with occasional agitation. Insoluble material was then removed by centrifugation at 16,000×g for 20 minutes at 4° C.
Immunocapture. Assays were run in 96-well plates (Falcon Probind™) using 100 μl/well. […] To control for non-specific adsorption of ATPase, a non-specific mouse monoclonal antibody was used as a null capture mAb. Wells were then loaded with solubilized test samples diluted in TBS with 2.5% BSA, incubated for 2 hours at room temperature and then washed 4 times with TBS.
ATPase activity. ATPase reaction buffer (25 mM HEPES pH 7.5 or 10 mM MOPS pH 6.5, with 25 mM KCl, 5 mM MgCl2, 5 mM KCN and 2 mM ATP) was added at 100 μl/well and incubated for 3 hours at 37° C. The reaction was stopped and free Pi generated by ATP hydrolysis was detected essentially as described by Walker et al. (Meth. Enzymol., 260: 163-190, 1995) by addition of 0.5% ammonium molybendate in 0.7 M H2SO4 (42 μl/well) followed by 10% ascorbic acid (4 μl/well). After incubation for 30 minutes at room temperature to allow color development, absorbance was measured at 690 nm.
IF1 Stripping Conditions. IF1 was dissociated from previously immunocaptured IF1/F1F0 complexes by exposure to IF1 stripping buffer (30 mM Tris-sulfate pH 8, 250 mM KCl, 2 mM EDTA, 75 mM sucrose) for 30 minutes at 37° C. (Van Raaij et al., Biochem. 35: 15618-15625, 1996). The wells were then washed with either a pH 7.5 wash buffer (TBS) or a pH 6.5 wash buffer (10 mM MOPS pH 6.5, 150 mM NaCl and 1 mM MgCl2), and ATPase activity measured at either pH 7.5 or pH 6.5 as described above.
IF1 Addition Conditions. Recombinant human IF1 was obtained by PCR-based amplification of the appropriate gene from a human heart CDNA library (Clontech), cloning into pET15b (Novagen), transformation of E. coli and overexpression and purification of the His-tagged protein on a Ni column by standard protocols (Novagen). Isolated protein was diluted in pH 6.5 wash buffer (as described above) containing 1 mM ATP and incubated with previously immunocaptured F1F0. The wells were then washed with pH 6.5 wash buffer and ATPase activity measured at pH 6.5 as described above.

Chain of human mtDNA polymerase γ (P54098 whole entry): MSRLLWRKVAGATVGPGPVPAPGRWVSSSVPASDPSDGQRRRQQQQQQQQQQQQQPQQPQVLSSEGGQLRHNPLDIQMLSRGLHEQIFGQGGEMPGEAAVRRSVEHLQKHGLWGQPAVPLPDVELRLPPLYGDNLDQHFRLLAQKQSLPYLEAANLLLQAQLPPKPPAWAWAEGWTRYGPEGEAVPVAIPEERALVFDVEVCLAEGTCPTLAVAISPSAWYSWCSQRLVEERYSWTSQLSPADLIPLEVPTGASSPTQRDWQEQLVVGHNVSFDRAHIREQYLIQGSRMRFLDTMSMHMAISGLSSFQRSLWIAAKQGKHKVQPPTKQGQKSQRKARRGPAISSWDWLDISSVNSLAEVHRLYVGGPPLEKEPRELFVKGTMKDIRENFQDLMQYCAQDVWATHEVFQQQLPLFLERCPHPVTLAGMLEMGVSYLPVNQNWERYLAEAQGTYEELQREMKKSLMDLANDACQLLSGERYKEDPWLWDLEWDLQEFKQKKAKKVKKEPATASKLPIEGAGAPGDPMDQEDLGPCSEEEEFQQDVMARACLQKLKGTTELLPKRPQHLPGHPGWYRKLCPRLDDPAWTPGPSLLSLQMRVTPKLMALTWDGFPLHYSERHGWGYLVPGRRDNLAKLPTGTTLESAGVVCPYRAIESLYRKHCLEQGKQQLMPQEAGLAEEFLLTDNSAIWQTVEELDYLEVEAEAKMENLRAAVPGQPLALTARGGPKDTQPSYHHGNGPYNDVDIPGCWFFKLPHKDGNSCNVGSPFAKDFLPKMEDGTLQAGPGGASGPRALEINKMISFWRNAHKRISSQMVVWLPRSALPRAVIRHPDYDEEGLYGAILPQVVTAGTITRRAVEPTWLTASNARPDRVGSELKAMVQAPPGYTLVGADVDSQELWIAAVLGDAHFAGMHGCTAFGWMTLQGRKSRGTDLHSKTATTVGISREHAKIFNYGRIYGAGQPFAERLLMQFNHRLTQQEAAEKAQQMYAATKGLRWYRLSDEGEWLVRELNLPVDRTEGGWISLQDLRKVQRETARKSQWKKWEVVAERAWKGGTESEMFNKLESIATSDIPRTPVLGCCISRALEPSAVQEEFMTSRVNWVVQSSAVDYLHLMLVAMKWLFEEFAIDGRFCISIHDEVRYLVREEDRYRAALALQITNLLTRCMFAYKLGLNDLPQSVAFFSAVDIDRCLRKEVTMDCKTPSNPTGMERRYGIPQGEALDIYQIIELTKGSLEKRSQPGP
Chain of Complex I (P49821 21-464): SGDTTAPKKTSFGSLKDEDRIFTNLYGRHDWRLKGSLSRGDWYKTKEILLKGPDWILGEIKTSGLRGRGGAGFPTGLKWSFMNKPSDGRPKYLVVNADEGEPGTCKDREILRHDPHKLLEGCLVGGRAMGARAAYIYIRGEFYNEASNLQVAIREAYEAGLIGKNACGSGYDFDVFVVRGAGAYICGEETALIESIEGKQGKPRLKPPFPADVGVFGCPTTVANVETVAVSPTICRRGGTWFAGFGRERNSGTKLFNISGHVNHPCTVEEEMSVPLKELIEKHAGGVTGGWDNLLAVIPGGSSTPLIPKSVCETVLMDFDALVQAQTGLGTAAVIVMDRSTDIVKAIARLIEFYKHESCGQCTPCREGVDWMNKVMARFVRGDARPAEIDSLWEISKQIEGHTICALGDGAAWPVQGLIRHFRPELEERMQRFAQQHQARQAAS
Chain of Complex I (P56556 whole entry): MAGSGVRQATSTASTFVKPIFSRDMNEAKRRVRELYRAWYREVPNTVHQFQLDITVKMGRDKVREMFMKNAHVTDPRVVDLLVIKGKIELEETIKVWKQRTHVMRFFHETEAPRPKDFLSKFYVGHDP

**Q.** Which results are given for `Nc1ccn([C@H]2CC[C@@H](CO)O2)c(=O)n1` [DDC, zalcitabine]?
**A.** depletion of mtDNA from fibroblasts [1]: within three population doublings; inhibition of isolated human mtDNA polymerase γ (hierarchy DDC≧DDI≧D4T≧3TC≧AZT≧ABV) [2]: inhibited most dramatically

**Q.** Which “effect on Complex I activity dipstick signal” value [3] does the source give for `c1ccc2c(c1)[I+]c1ccccc1-2` [DPI, diphenyleneiodonium] here?
**A.** reduced signal

**Q.** With `[N-]=[N+]=[N-]` [azide] as the molecule, how does the “inhibition of oxidase activity in the Complex IV capture zone” value [4] read?
**A.** near complete inhibition

**Q.** Which “inhibition of Complex IV” value [5] does the source give for `O=NOO` [peroxynitrite] here?
**A.** ~50%

**Q.** With `C=C(C)[C@H]1Cc2c(ccc3c2O[C@@H]2COc4cc(OC)c(OC)cc4[C@@H]2C3=O)O1` [rotenone] as the molecule, how does the “fraction of immunocaptured NADH:UQ1 oxidoreductase activity sensitive to inhibition” value [6] read?
**A.** approximately 30%

**Q.** Which ATP hydrolysis activity [7] does the source give for Complex V (F1/F0 ATPase), human here?
**A.** the enzyme could be greatly activated (>10-fold) by conditions that strip the IF1 from the protein

**Q.** What about the ATP hydrolysis activity [8] of the same molecule?
**A.** addition of recombinant IF1, which reduced the rate of ATP hydrolysis to that before stripping

B1: recombinant IF1: His-tagged recombinant human inhibitor protein of F1/F0 ATPase expressed in E. coli (protein)
chain: T2 sequence
modifications: left off: small tags and cut ends
**Q.** Which “effect on stripped F1/F0 ATPase from GM00028 and MRC5 cells” value ([9]; 5 μg/ml (FIG. 9)) does the source give for B1 here?
**A.** inhibited

**Q.** And the “effect on ATP hydrolysis of IF1-stripped immunocaptured F1/F0 ATPase” value ([9]; human heart mitochondria, assayed at pH 6.5 (FIG. 6))?
**A.** reduced the rate of ATP hydrolysis to that before stripping
